Measured values from ChEMBL document CHEMBL4229420, “ROCK inhibitors 2. Improving potency, selectivity and solubility through the application of rationally designed solubilizing groups” (Bioorg Med Chem Lett, 2018).
≈ marks a conversion by molar mass, not a printed value.

Assay: Solubility of the compound in pH 7.4 phosphate buffer
Format: physicochemical
Settings: buffer

Row | solubility [µM] | SMILES
1 | > 200 | CN1CCN(CCCOc2cccc(CC(=O)Nc3nc(-c4ccncc4)cs3)c2)CC1
2 | > 200 | O=C(Cc1cccc(OCCCC2CCNCC2)c1)Nc1nc(-c2ccncc2)cs1

Same assay, conditions: phosphate buffer, read-out: solubility

Row | solubility [µM] | SMILES
3 | > 200 | CN1CCN(CCOc2cccc(CC(=O)Nc3nc(-c4ccncc4)cs3)c2)CC1
4 | > 200 | O=C(Cc1cccc(OCCN2CCNCC2)c1)Nc1nc(-c2ccncc2)cs1
5 | > 200 | O=C(Cc1cccc(OCCN2CCCCC2)c1)Nc1nc(-c2ccncc2)cs1
6 | > 200 | O=C(Cc1cccc(OCCCN2CCNCC2)c1)Nc1nc(-c2ccncc2)cs1
7 | > 200 | CN1CCC(CCCOc2cccc(CC(=O)Nc3nc(-c4ccncc4)cs3)c2)CC1
8 | > 200 | O=C(Cc1cccc(OCCN2CCOCC2)c1)Nc1nc(-c2ccncc2)cs1
9 | 22 (≈ 7.16 µg/mL) | COc1cccc(CC(=O)Nc2nc(-c3ccncc3)cs2)c1
10 | > 200 | O=C(Cc1cccc(OCCCN2CCCCC2)c1)Nc1nc(-c2ccncc2)cs1
11 | > 200 | O=C(Cc1cccc(OCCCN2CCOCC2)c1)Nc1nc(-c2ccncc2)cs1
